Experiments:
Lu-99 cell line [1] = experiment: Cytotoxicity against human LU99 cells assessed as decrease in cell viability after 72 hrs by CCK8 assay; format: functional, cell-based; conditions: Lu-99, 72 h
Daudi = experiment: Cytotoxicity against human Daudi cells assessed as decrease in cell viability after 72 hrs by CCK8 assay; format: functional, cell-based
MKN-1 = experiment: Cytotoxicity against human MKN1 cells assessed as decrease in cell viability after 72 hrs by CCK8 assay; format: functional, cell-based; conditions: MKN-1, 72 h
HCT-116 = experiment: Cytotoxicity against human HCT116 cells assessed as decrease in cell viability after 72 hrs by CCK8 assay; format: functional, cell-based; conditions: HCT-116, 72 h
MIA PaCa-2 = experiment: Cytotoxicity against human MIAPaCa2 cells assessed as decrease in cell viability after 72 hrs by CCK8 assay; format: functional, cell-based; conditions: MIA PaCa-2, 72 h
UMUC3 = experiment: Cytotoxicity against human UM-UC-3 cells assessed as decrease in cell viability after 72 hrs by CCK8 assay; format: functional, cell-based; conditions: UMUC3, 72 h
MKN-45 = experiment: Cytotoxicity against human MKN45 cells assessed as decrease in cell viability after 72 hrs by CCK8 assay; format: functional, cell-based; conditions: MKN-45, 72 h
DU-4475 = experiment: Cytotoxicity against human DU4475 cells assessed as decrease in cell viability after 72 hrs by CCK8 assay; format: functional, cell-based; conditions: DU-4475, 72 h
A549 [2] = experiment: Cytotoxicity against human A549 cells assessed as decrease in cell viability after 72 hrs by CCK8 assay; format: functional, cell-based; conditions: A549, 72 h
CWR22R = experiment: Cytotoxicity against human 22Rv1 cells assessed as decrease in cell viability after 72 hrs by CCK8 assay; format: functional, cell-based; conditions: 22Rv1, 72 h
T47D = experiment: Cytotoxicity against human T47D cells assessed as decrease in cell viability after 72 hrs by CCK8 assay; format: functional, cell-based
HepG2 = experiment: Cytotoxicity against human HepG2 cells assessed as decrease in cell viability after 72 hrs by CCK8 assay; format: functional, cell-based; conditions: HepG2, 72 h
MDA-MB-231 = experiment: Cytotoxicity against human MDA-MB-231 cells assessed as decrease in cell viability after 72 hrs by CCK8 assay; format: functional, cell-based; conditions: MDA-MB-231, 72 h
Lu-99 cell line [3] = experiment: Antitumor activity against human LU99 cells xenografted in BALB/cSLC-nu/nu mouse assessed as tumor growth inhibition at 40 mg/kg, iv administered in liposomal formulation on day 1, 4, 8, 11, 15, 18 measured on day 22 relative to control; format: functional; conditions: Lu-99, iv, read-out: TGI
Lu-99 cell line [4] = experiment: Antitumor activity against human LU99 cells xenografted in BALB/cSLC-nu/nu mouse assessed as tumor growth inhibition at 100 mg/kg, po qd administered for 14 days measured on day 15 relative to control; format: functional; conditions: Lu-99, po, read-out: TGI
MV4-11 = experiment: Cytotoxicity against human MV4-11 cells assessed as decrease in cell viability after 48 hrs by MTT assay; format: functional, cell-based; conditions: MV4-11, 48 h
THP-1 = experiment: Cytotoxicity against human THP1 cells assessed as decrease in cell viability after 48 hrs by MTT assay; format: functional, cell-based; conditions: THP-1, 48 h
KG-1 = experiment: Cytotoxicity against human KG1 cells assessed as decrease in cell viability after 48 hrs by MTT assay; format: functional, cell-based; conditions: KG-1, 48 h
[5] = Cytotoxicity against human KOCL48 cells assessed as decrease in cell viability after 48 hrs by MTT assay; format: functional, cell-based
MOLM-13 = experiment: Cytotoxicity against human MOLM13 cells assessed as decrease in cell viability after 48 hrs by MTT assay; format: functional, cell-based; conditions: MOLM-13, 48 h
KG-1a = experiment: Cytotoxicity against human KG1a cells assessed as decrease in cell viability after 48 hrs by MTT assay; format: functional, cell-based
K562 = experiment: Cytotoxicity against human K562 cells assessed as decrease in cell viability after 48 hrs by MTT assay; format: functional, cell-based; conditions: K562, 48 h
ML-2 = experiment: Cytotoxicity against human ML2 cells assessed as decrease in cell viability after 48 hrs by MTT assay; format: functional, cell-based; conditions: ML-2, 48 h
U-937 = experiment: Cytotoxicity against human U937 cells assessed as decrease in cell viability after 48 hrs by MTT assay; format: functional, cell-based; conditions: U-937, 48 h
CAKI-1 = experiment: Cytotoxicity against human Caki1 cells assessed as decrease in cell viability after 72 hrs by MTT assay; format: functional, cell-based; conditions: CAKI-1, 72 h
769-P = experiment: Cytotoxicity against human 769-P cells assessed as decrease in cell viability after 72 hrs by MTT assay; format: functional, cell-based
786-0 = experiment: Cytotoxicity against human 786-O cells assessed as decrease in cell viability after 72 hrs by MTT assay; format: functional, cell-based; conditions: 786-0, 72 h
[6] = Cytotoxicity against human VMRC-RCW cells assessed as decrease in cell viability after 72 hrs by MTT assay; format: functional, cell-based
CAKI-2 = experiment: Cytotoxicity against human Caki2 cells assessed as decrease in cell viability after 72 hrs by MTT assay; format: functional, cell-based; conditions: CAKI-2, 72 h
A549 [7] = experiment: Antitumor activity against human A549 cells xenografted in BALB/cSLC-nu/nu mouse assessed as tumor growth inhibition at 5 mg/kg, iv qd administered for 14 days measured on day 15 relative to control; format: functional; conditions: read-out: TGI
Lu-99 cell line [8] = experiment: Antitumor activity against human LU99 cells xenografted in BALB/cSLC-nu/nu mouse assessed as tumor growth inhibition at 5 mg/kg, iv qd administered for 14 days measured on day 15 relative to control; format: functional; conditions: Lu-99, iv, read-out: TGI
Caov-3 cell line = experiment: Cytotoxicity against human Caov3 cells assessed as decrease in cell viability after 72 hrs by CCK8 assay; format: functional, cell-based; conditions: Caov-3, 72 h
PA-1 = experiment: Cytotoxicity against human PA1 cells assessed as decrease in cell viability after 72 hrs by CCK8 assay; format: functional, cell-based; conditions: PA-1, 72 h
[9] = Cytotoxicity against human ES2 cells assessed as decrease in cell viability after 72 hrs by CCK8 assay; format: functional, cell-based; conditions: ES-2, 72 h
SK-OV-3 = experiment: Cytotoxicity against human SKOV3 cells assessed as decrease in cell viability after 72 hrs by CCK8 assay; format: functional, cell-based; conditions: SK-OV-3, 72 h
OV-90 = experiment: Cytotoxicity against human OV90 cells assessed as decrease in cell viability after 72 hrs by CCK8 assay; format: functional, cell-based; conditions: OV-90, 72 h
SW626 = experiment: Cytotoxicity against human SW626 cells assessed as decrease in cell viability after 72 hrs by CCK8 assay; format: functional, cell-based; conditions: SW626, 72 h
OVCAR-3 = experiment: Cytotoxicity against human OVCAR3 cells assessed as decrease in cell viability after 72 hrs by CCK8 assay; format: functional, cell-based; conditions: OVCAR-3, 72 h
A2780 = experiment: Cytotoxicity against human A2780 cells assessed as decrease in cell viability after 72 hrs by CCK8 assay; format: functional, cell-based; conditions: A2780, 72 h
[10] = Cytotoxicity against human OVSAHO cells assessed as decrease in cell viability after 72 hrs by CCK8 assay; format: functional, cell-based
RMG-I = experiment: Cytotoxicity against human RMG-1 cells assessed as decrease in cell viability after 72 hrs by CCK8 assay; format: functional, cell-based
[11] = Cytotoxicity against human OVTOKO cells assessed as decrease in cell viability after 72 hrs by CCK8 assay; format: functional, cell-based

Q: For `Cc1cc(O)c(-c2ccc([C@@H](C)CN(C)C)cc2)c2c1[nH]c(=O)c1sccc12`, which IC50 (Lu-99 cell line [1]) is on record?
A: 7.6 nM

Q: And the IC50 (Daudi)?
A: 25 nM

Q: What about the IC50 (MKN-1) of the same compound?
A: 38 nM

Q: What about the IC50 (HCT-116) of the same compound?
A: 33 nM

Q: And the IC50 (MIA PaCa-2)?
A: 30 nM

Q: And the IC50 (UMUC3)?
A: 32 nM

Q: And the IC50 (MKN-45)?
A: 39 nM

Q: And the IC50 (DU-4475)?
A: 53 nM

Q: And the IC50 (A549 [2])?
A: 31 nM

Q: What about the IC50 (CWR22R) of the same compound?
A: 50 nM

Q: And the IC50 (T47D)?
A: 72 nM

Q: And the IC50 (HepG2)?
A: 19 nM

Q: And the IC50 (MDA-MB-231)?
A: 73 nM

Q: What about the inhibition in vivo at 40 mg/kg (Lu-99 cell line [3]) of the same compound?
A: 110%

Q: What about the inhibition in vivo at 100 mg/kg (Lu-99 cell line [4]) of the same compound?
A: 113%

Q: For `Cc1cc(O)c(-c2ccc([C@@H](C)CN)cc2)c2c1[nH]c(=O)c1sccc12`, which IC50 (MV4-11) is on record?
A: 10.7 nM

Q: And the IC50 (THP-1)?
A: 23.5 nM

Q: And the IC50 (KG-1)?
A: 48.7 nM

Q: And the IC50 [5]?
A: 7.1 nM

Q: And the IC50 (MOLM-13)?
A: 9 nM

Q: What about the IC50 (KG-1a) of the same compound?
A: 26.2 nM

Q: What about the IC50 (K562) of the same compound?
A: 36.8 nM

Q: And the IC50 (ML-2)?
A: 17.9 nM

Q: And the IC50 (U-937)?
A: 19.2 nM

Q: What about the IC50 (CAKI-1) of the same compound?
A: 27.8 nM

Q: And the IC50 (769-P)?
A: 20.7 nM

Q: What about the IC50 (786-0) of the same compound?
A: 44.1 nM

Q: What about the IC50 [6] of the same compound?
A: 19.9 nM

Q: And the IC50 (CAKI-2)?
A: 20.1 nM

Q: And the IC50 (Lu-99 cell line [1])?
A: 1.5 nM

Q: And the IC50 (Daudi)?
A: 3.7 nM

Q: And the IC50 (MKN-1)?
A: 4.6 nM

Q: And the IC50 (HCT-116)?
A: 4.8 nM

Q: And the IC50 (MIA PaCa-2)?
A: 5.2 nM

Q: What about the IC50 (UMUC3) of the same compound?
A: 5.7 nM

Q: And the IC50 (MKN-45)?
A: 6.1 nM

Q: What about the IC50 (DU-4475) of the same compound?
A: 6.4 nM

Q: What about the IC50 (A549 [2]) of the same compound?
A: 6.5 nM

Q: And the IC50 (CWR22R)?
A: 8 nM

Q: And the IC50 (T47D)?
A: 8.4 nM

Q: What about the IC50 (HepG2) of the same compound?
A: 8.5 nM

Q: And the IC50 (MDA-MB-231)?
A: 14 nM

Q: And the inhibition in vivo at 5 mg/kg (A549 [7])?
A: 65%

Q: And the inhibition in vivo at 5 mg/kg (Lu-99 cell line [8])?
A: 104%

Q: What about the IC50 (Caov-3 cell line) of the same compound?
A: 5.1 nM

Q: What about the IC50 (PA-1) of the same compound?
A: 5 nM

Q: What about the IC50 [9] of the same compound?
A: 5.6 nM

Q: And the IC50 (SK-OV-3)?
A: 6.3 nM

Q: And the IC50 (OV-90)?
A: 8.8 nM

Q: And the IC50 (SW626)?
A: 9.4 nM

Q: And the IC50 (OVCAR-3)?
A: 12 nM

Q: And the IC50 (A2780)?
A: 10 nM

Q: What about the IC50 [10] of the same compound?
A: 13 nM

Q: What about the IC50 (RMG-I) of the same compound?
A: 15 nM

Q: What about the IC50 [11] of the same compound?
A: 46 nM

Source: ChEMBL document CHEMBL4261482, “Development of small molecular compounds targeting cancer stem cells” (Medchemcomm, 2017)
